ChEMBL document CHEMBL2424520, “Screening and evaluation of small organic molecules as ClpB inhibitors and potential antimicrobials” (J Med Chem, 2013)
Converted amounts (≈) assume the structure as drawn. Each block holds one compound with its values, some of them ahead of it. The source made the active and inactive calls. No cut-off for these calls is given here.

Columns and labels:
[1] = Binding affinity to CLPB (unknown origin) expressed in Escherichia coli MC4100 assessed as change in melting temperature at 100 to 200 uM after 30 mins by DSF analysis
[2] = Inhibition of DNAK/CLPB (unknown origin) assessed as reactivation of malate dehydrogenase aggregates after 2 hrs
[3] = Binding affinity to CLPB (unknown origin) expressed in Escherichia coli MC4100 assessed as change in melting temperature at 100 to 200 uM after 30 mins by DSF analysis in presence of ADP
[4] = Inhibition of DNAK (unknown origin) assessed as reactivation of luciferase aggregates after 2 hrs
[5] = Binding affinity to CLPB (unknown origin) expressed in Escherichia coli MC4100 assessed as change in melting temperature at 100 to 200 uM after 30 mins by DSF analysis in presence of ATP
[6] = Binding affinity to CLPB (unknown origin) expressed in Escherichia coli MC4100 assessed as change in melting temperature at 100 to 200 uM after 30 mins by DSF analysis in presence of ATPgammaS
[7] = Effect on ATPase activity of CLPB (unknown origin) expressed in Escherichia coli MC4100 at 1 to 100 uM by spectrophotometric analysis
[8] = Effect on ATPase activity of CLPB (unknown origin) expressed in Escherichia coli MC4100 using alpha-casein as substrate at 1 to 100 uM by spectrophotometric analysis
[9] = Activation of CLPB (unknown origin) expressed in Escherichia coli MC4100 at 1 to 100 uM by spectrophotometric analysis
[10] = Activation of CLPB (unknown origin) expressed in Escherichia coli MC4100 using alpha-casein as substrate at 1 to 100 uM by spectrophotometric analysis
[11] = Inhibition of DNAK (unknown origin) assessed as reactivation of luciferase aggregates after 2 hrs in presence of Tween 80
[12] = Inhibition of DNAK/CLPB (unknown origin) assessed as reactivation of malate dehydrogenase aggregates after 2 hrs in presence of Tween 80
[13] = tested on: Escherichia coli; assay: Antibacterial activity against CLPB-deleted Escherichia coli MC4100 assessed as reduction of CFU count at 300 uM at 37 degC after 24 hrs by two-fold dilution method in presence of paraquat; type: functional, organism-based
[14] = tested on: Escherichia coli; assay: Antibacterial activity against Escherichia coli MC4100 assessed as growth inhibition at 0.1 to 1000 uM at 37 to 47 degC after 24 hrs by two-fold dilution method in presence of paraquat; type: functional, organism-based
[15] = tested on: Escherichia coli; assay: Antibacterial activity against Escherichia coli MC4100 assessed as reduction of CFU count at 300 uM at 42 degC after 24 hrs by two-fold dilution method; type: functional
[16] = tested on: Escherichia coli; assay: Antibacterial activity against TolC-deleted Escherichia coli JLS1015 at 37 to 47 degC after 7 hrs by two-fold dilution method; type: functional; details: JLS1015, 7 h
[17] = Binding affinity to CLPB E276A/E678A mutant (unknown origin) expressed in Escherichia coli MC4100 at 100 uM in presence of alpha-casein by spectrofluorimetric analysis
[18] = tested on: Escherichia coli; assay: Antibacterial activity against Escherichia coli MC4100 assessed as reduction of CFU count at 300 uM at 37 degC after 24 hrs by two-fold dilution method in presence of paraquat; type: functional
[19] = Binding affinity to CLPB (unknown origin) expressed in Escherichia coli MC4100 up to 400 seconds by surface plasmon resonance analysis
[20] = tested on: Escherichia coli; assay: Antibacterial activity against CLPB-deleted Escherichia coli MC4100 assessed as reduction of CFU count at 300 uM at 37 degC after 24 hrs by two-fold dilution method; type: functional, organism-based
[21] = tested on: Escherichia coli; assay: Antibacterial activity against Escherichia coli MC4100 assessed as growth inhibition at 42 degC after 24 hrs by two-fold dilution method in presence of paraquat; type: functional; details: MC4100, 24 h
[22] = tested on: Escherichia coli; assay: Antibacterial activity against CLPB-deleted Escherichia coli MC4100 assessed as growth inhibition at 0.1 to 1000 uM at 37 to 47 degC after 24 hrs by two-fold dilution method in presence of paraquat; type: functional, organism-based
[23] = tested on: Escherichia coli; assay: Antibacterial activity against Escherichia coli BL21(DE3) assessed as growth inhibition at 0.1 to 1000 uM at 37 to 47 degC after 24 hrs by two-fold dilution method in presence of paraquat; type: functional
[24] = Inhibition of ATPase activity of CLPB (unknown origin) expressed in Escherichia coli MC4100 using 20 to 100 uM alpha-casein as substrate at 1 to 100 uM by spectrophotometric analysis
[25] = tested on: Escherichia coli; assay: Antibacterial activity against Escherichia coli MC4100 assessed as growth inhibition at 37 degC after 24 hrs by two-fold dilution method; type: functional, organism-based
[26] = Cytotoxicity against human HeLa cells assessed as cell viability at 40 to 100 uM after 72 hrs by tetrazolium reduction assay relative to control; type: cell-based; details: read-out: Activity
[27] = Inhibition of ATPase activity of CLPB (unknown origin) expressed in Escherichia coli MC4100 using 10 uM alpha-casein as substrate at 1 to 100 uM by spectrophotometric analysis
[28] = tested on: Escherichia coli; assay: Antibacterial activity against Escherichia coli BL21(DE3) assessed as growth inhibition at 42 degC after 24 hrs by two-fold dilution method in presence of paraquat; type: functional
[29] = tested on: Escherichia coli; assay: Antibacterial activity against CLPB-deleted Escherichia coli MC4100 assessed as growth inhibition at 37 degC after 24 hrs by two-fold dilution method; type: functional, organism-based
[30] = Binding affinity to CLPB E276A/E678A mutant (unknown origin)-alpha-casein complex expressed in Escherichia coli MC4100 at 0.1 to 1000 uM by titrimetric analysis
[31] = Binding affinity to CLPB E276A/E678A mutant (unknown origin) expressed in Escherichia coli MC4100 assessed as change in melting temperature by DSF analysis
[32] = Cytotoxicity against CHO cells assessed as cell viability at 40 to 100 uM after 72 hrs by tetrazolium reduction assay relative to control; type: cell-based, Cricetulus griseus; details: chinese hamster, read-out: Activity
[33] = Inhibition of CLPB (unknown origin) expressed in Escherichia coli MC4100 at 1 to 100 uM by spectrophotometric analysis
[34] = Inhibition of CLPB (unknown origin) expressed in Escherichia coli MC4100 using alpha-casein as substrate at 1 to 100 uM by spectrophotometric analysis
[35] = tested on: Escherichia coli; assay: Antibacterial activity against Escherichia coli BL21(DE3) assessed as growth inhibition at 37 degC after 24 hrs by two-fold dilution method; type: functional
[36] = Reduction of ATPase activity of DNAK (unknown origin) using ALLQSRLLLSAPRRAAATARY as substrate at 100 uM by spectrophotometric analysis relative to control in presence of cochaperone DnaJ
[37] = Binding affinity to CLPB E276A/E678A mutant (unknown origin) expressed in Escherichia coli MC4100 at 80 uM in presence of alpha-casein by spectrofluorimetric analysis
[38] = Effect on ATPase activity of DNAK (unknown origin) using ALLQSRLLLSAPRRAAATARY as substrate at 100 uM by spectrofluorimetric analysis
[39] = Reduction of ATPase activity of DNAK (unknown origin) using ALLQSRLLLSAPRRAAATARY as substrate at 100 uM by spectrophotometric analysis relative to control in presence of cochaperone GrpE
[40] = Binding affinity to CLPB hexamer (unknown origin) expressed in Escherichia coli MC4100 at 100 uM by sedimentation equilibrium analysis
[41] = Reduction of ATPase activity of DNAK (unknown origin) at 100 uM by spectrophotometric analysis

ΔTm [1]: 0.8 °C
IC50 [2]: 90 µM
ΔTm [3]: 5.2 °C
IC50 [4]: > 100 µM
ΔTm [5]: 1.8 °C
ΔTm [6]: 4.2 °C
Activity [7]: inactive
Activity [8]: inactive
SMILES: O=C(Nc1cccc([N+](=O)[O-])c1)c1sc2cccc(Cl)c2c1Cl

ΔTm [1]: 17.5 °C
IC50 [2]: > 100 µM
ΔTm [3]: 12.3 °C
IC50 [4]: 100 µM
ΔTm [5]: 11.9 °C
ΔTm [6]: 13.3 °C
Activity [9]: Active
Activity [10]: Active
SMILES: C(=C\C=C\Nc1ccccc1)/C=C/Nc1ccccc1

IC50 [11]: > 100 µM
ΔTm [1]: 1 °C
IC50 [2]: 7.5 µM
IC50 [12]: 11 µM
ΔTm [3]: 0.7 °C
IC50 [4]: > 100 µM
ΔTm [5]: 1.2 °C
ΔTm [6]: 7.1 °C
Activity [9]: Active
Activity [10]: Active
SMILES: COc1cc(/C=C2/C(=O)NN(c3ccc(Cl)cc3)C2=O)ccc1OCc1ccc(F)cc1

IC50 [11]: > 100 µM
ΔTm [1]: 1.5 °C
IC50 [2]: 20 µM
IC50 [12]: 15 µM
ΔTm [3]: 0.8 °C
IC50 [4]: > 100 µM
ΔTm [5]: 0.8 °C
ΔTm [6]: 2 °C
MIC [16]: 5 µM (≈ 1.93 µg/mL)
Activity [17]: Active
MIC [21]: 60 µM
inhibition [24]: inactive
inhibition [27]: Active
MIC [28]: 60 µM
Activity [30]: inactive
SMILES: O=C(Nc1ccccc1)OCCSC(=O)Nc1ccc(Cl)c(Cl)c1
Activity [13]: inactive
growth inhibition (GI) [14]: Active
log10cfu [15]: 2
log10cfu [18]: 2
Kd [19]: 19 µM
Activity [20]: inactive
growth inhibition (GI) [22]: inactive
growth inhibition (GI) [23]: Active
growth inhibition (GI) [25]: Active
viability at 72 h, up to 100 µM [26]: 50%
growth inhibition (GI) [29]: Active
Kd [31]: 23 µM
viability at 72 h, up to 100 µM [32]: 50%

IC50 [11]: 60 µM
ΔTm [1]: > 40 °C
IC50 [2]: 10 µM
IC50 [12]: 6 µM
IC50 [4]: 40 µM
ΔTm [6]: 12.3 °C
Activity [9]: Active
Activity [10]: Active
SMILES: O=C1Nc2ccc([N+](=O)[O-])cc2/C1=C1\SC(=O)N(c2ccc(Cl)cc2)C1=O

IC50 [11]: 50 µM
ΔTm [1]: 18.1 °C
IC50 [2]: 30 µM
IC50 [12]: 15 µM
ΔTm [3]: -0.7 °C
IC50 [4]: 85 µM
ΔTm [5]: -0.2 °C
ΔTm [6]: 14.6 °C
Activity [9]: Active
Activity [10]: Active
SMILES: O=C1Nc2ccc(Br)cc2/C1=C1/SC(=O)N(c2ccccc2)C1=O

IC50 [11]: > 100 µM
ΔTm [1]: -0.8 °C
IC50 [2]: 65 µM
IC50 [12]: 40 µM
ΔTm [3]: 1.5 °C
IC50 [4]: > 100 µM
ΔTm [5]: 2.2 °C
ΔTm [6]: -0.8 °C
inhibition [33]: Active
inhibition [34]: Active
Activity [30]: inactive
SMILES: CCn1c(=O)c(C(=O)Nc2cccc(O)c2)c(O)c2ccccc21

SMILES: CC1(C)S[C@@H]2[C@H](NC(=O)[C@H](N)c3ccccc3)C(=O)N2[C@H]1C(=O)O [AMPICILLIN]
MIC [35]: 2 µM (≈ 0.699 µg/mL)

ΔTm [1]: 14.3 °C
IC50 [2]: > 100 µM
ΔTm [3]: 0.7 °C
IC50 [4]: > 100 µM
ΔTm [5]: 2 °C
Activity [7]: inactive
Activity [8]: inactive
SMILES: Cc1c(Cl)c([N+](=O)[O-])nn1CC(=O)Nc1cc(Oc2ccc(Cl)cc2Cl)cc([N+](=O)[O-])c1

IC50 [11]: > 100 µM
ΔTm [1]: 9 °C
IC50 [2]: > 100 µM
IC50 [12]: > 100 µM
ΔTm [3]: 7.6 °C
IC50 [4]: > 100 µM
ΔTm [5]: 7.9 °C
ΔTm [6]: 5.4 °C
Activity [7]: inactive
Activity [8]: inactive
SMILES: C=CCN1C(=O)C(=C2C(=O)Nc3ccccc32)SC1=S

fold change (FC) [36]: 7
IC50 [11]: 6 µM
ΔTm [1]: 8.1 °C
IC50 [2]: 7 µM
IC50 [12]: 6 µM
ΔTm [3]: 6.7 °C
IC50 [4]: 4 µM
ΔTm [5]: 7.2 °C
Activity [37]: Active
ΔTm [6]: 4.9 °C
MIC [16]: 5 µM (≈ 1.46 µg/mL)
Activity [38]: inactive
MIC [21]: 60 µM
fold change (FC) [39]: 7
Activity [40]: Active
inhibition [24]: Active
Activity [41]: Active
inhibition [27]: Active
MIC [28]: 60 µM
Activity [30]: Active
SMILES: O=Cc1cc(Cc2ccccc2Cl)cc([N+](=O)[O-])c1O
Activity [13]: inactive
growth inhibition (GI) [14]: Active
log10cfu [15]: 2
log10cfu [18]: 2
Kd [19]: 12.9 µM
Activity [20]: inactive
growth inhibition (GI) [22]: inactive
growth inhibition (GI) [23]: Active
growth inhibition (GI) [25]: Active
viability at 72 h, up to 100 µM [26]: 50%
growth inhibition (GI) [29]: Active
Kd [31]: 12 µM
viability at 72 h, up to 100 µM [32]: 50%

ΔTm [1]: 24.2 °C
IC50 [2]: > 100 µM
ΔTm [3]: 19.9 °C
ΔTm [5]: 22.1 °C
ΔTm [6]: 19.3 °C
Activity [7]: inactive
Activity [8]: inactive
SMILES: CC(C)[C@H](C(=O)O)N1C(=O)/C(=C2/C(=O)Nc3ccc(Br)cc32)SC1=S

ΔTm [1]: 8.4 °C
IC50 [2]: > 100 µM
ΔTm [3]: 9.4 °C
ΔTm [5]: 13.1 °C
ΔTm [6]: 14.3 °C
Activity [7]: inactive
Activity [8]: inactive
SMILES: COCCCN1C(=O)C(=C2C(=O)Nc3ccc(Br)cc32)SC1=S
